# Assay results published in patent US12410184B2, “Crystalline forms of a menin inhibitor” (Kura Oncology, Inc., priority 2023, dated 2025).
# Experiments:
# [1] = Compound 1, Form 1 and Form 5 interconversion study (slurry in saturated solutions, XRPD); assay type: physicochemical; conditions: conclusion from Table 5 interconversion study
# Method: Saturated solutions of Compound 1, Form 1, in EtOH, MTBE, and isopropyl acetate at 50° C. were prepared. About 6 mg of Compound 1, Form 1, and Compound 1, Form 5, were weighed into each saturated solutions, and the resulting suspensions were slurried for 2 days at corresponding temperature. The resulting solids were sampled for XRPD analysis.
# [2] = Solid form stability under humidity or vacuum/heat; assay type: physicochemical
# Method: Treatment of Form 5 at 40° C., 75% relative humidity for 6 days provided mainly Form 4.
# Treatment of Form 4 at 50° C. under vacuum and inert atmosphere for 5 days provided mainly Form 4.
smiles,measurement,setting,value
"CNc1nc(NC2CCN(Cc3ccc4c(cc(C#N)n4C[C@H](C)N4CCN(S(C)(=O)=O)CC4)c3C)CC2)c2cc(CC(F)(F)F)sc2n1 [Compound 1, Form 1, (S)-4-methyl-5-((4-((2-(methylamino)-6-(2,2,2-trifluoroethyl)thieno[2,3-d]pyrimidin-4-yl)amino)piperidin-1-yl)methyl)-1-(2-(4-(methylsulfonyl)piperazin-1-yl)propyl)-1H-indole-2-carbonitrile]",Thermodynamic stability of crystalline form,[1],thermodynamically stable crystalline form
"CNc1nc(NC2CCN(Cc3ccc4c(cc(C#N)n4C[C@H](C)N4CCN(S(C)(=O)=O)CC4)c3C)CC2)c2cc(CC(F)(F)F)sc2n1 [Compound 1, Form 4, (S)-4-methyl-5-((4-((2-(methylamino)-6-(2,2,2-trifluoroethyl)thieno[2,3-d]pyrimidin-4-yl)amino)piperidin-1-yl)methyl)-1-(2-(4-(methylsulfonyl)piperazin-1-yl)propyl)-1H-indole-2-carbonitrile]",Solid form after treatment,"[2]; 50° C. under vacuum and inert atmosphere, 5 days",mainly Form 4
"CNc1nc(NC2CCN(Cc3ccc4c(cc(C#N)n4C[C@H](C)N4CCN(S(C)(=O)=O)CC4)c3C)CC2)c2cc(CC(F)(F)F)sc2n1 [Compound 1, Form 5, (S)-4-methyl-5-((4-((2-(methylamino)-6-(2,2,2-trifluoroethyl)thieno[2,3-d]pyrimidin-4-yl)amino)piperidin-1-yl)methyl)-1-(2-(4-(methylsulfonyl)piperazin-1-yl)propyl)-1H-indole-2-carbonitrile]",Solid form after treatment,"[2]; 40° C., 75% relative humidity, 6 days",mainly Form 4
